These results are taken from patent US6028109A, “Use of agonists of the peroxisome proliferator activated receptor alpha for treating obesity” (Glaxo Wellcome Inc., priority 1996, dated 2000).

One assay deals with T1, hPPARα (Homo sapiens, UniProt Q07869).
T1 construct: amino acids 174-475 of PPARα; expressed in transfected cells; host or cells: CV-1 cells
T1 sequence (Q07869 167-468 limits assumed): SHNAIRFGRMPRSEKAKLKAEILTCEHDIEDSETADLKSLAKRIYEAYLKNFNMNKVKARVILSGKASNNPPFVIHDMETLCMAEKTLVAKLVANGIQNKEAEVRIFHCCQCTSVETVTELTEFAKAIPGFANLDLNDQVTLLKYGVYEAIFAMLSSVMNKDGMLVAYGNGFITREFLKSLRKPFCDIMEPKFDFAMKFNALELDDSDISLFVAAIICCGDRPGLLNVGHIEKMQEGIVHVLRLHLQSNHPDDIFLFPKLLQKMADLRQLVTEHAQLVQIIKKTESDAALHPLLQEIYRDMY
Kind of assay: Transient cotransfection assay, GAL4-PPARα chimera in CV-1 cells (human PPARα). The conditions noted are these: transfection assay. Format: cell-based. An excerpt:
(§1) A transient cotransfection assay was used to screen for PPARα activator activity of compounds of formula (I).
(§2) As mammalian cell lines contain endogenous nuclear receptors that can complicate interpretation of the results, we used an established chimera system in which the ligand-binding domain of the PPAR-α was fused to the DNA binding domain of the yeast transcription factor GAL4.The GAL4-PPARα chimera was cotransfected into CV-1 cells with a reporter construct containing five copies of the GAL4 binding site upstream of the thymidine kinase promotor driving secreted placental alkaline phosphatase (SPAP) as reporter.
(§3) GAL4-PPAR chimera and UAS-tk-CAT/SPAP reporters. […]
(§4) Transfection assay; SPAP reporter. […] 16 h later the medium was exchanged to DME medium supplemented with 10% delipidated fetal calf serum and the test compound at a concentration of 10^-5 M. After incubation for an additional 24 h SPAP activity and β-galactosidase activity were measured as previously described (Pfahl et al., 1990).
(§5) Transfection assay: CAT reporter. […] After incubation for an additional 24 h, chloramphenicol acetyl transferase (CAT) activity and β-galactosidase activity were measured as previously described (Pfahl et al., 1990). […]

For the next assay, the target named is T2, mPPARα (Mus musculus, UniProt P23204).
T2 construct: amino acids 174-475 of PPARα; expressed in transfected cells; host or cells: CV-1 cells
T2 sequence (P23204 167-468 limits assumed): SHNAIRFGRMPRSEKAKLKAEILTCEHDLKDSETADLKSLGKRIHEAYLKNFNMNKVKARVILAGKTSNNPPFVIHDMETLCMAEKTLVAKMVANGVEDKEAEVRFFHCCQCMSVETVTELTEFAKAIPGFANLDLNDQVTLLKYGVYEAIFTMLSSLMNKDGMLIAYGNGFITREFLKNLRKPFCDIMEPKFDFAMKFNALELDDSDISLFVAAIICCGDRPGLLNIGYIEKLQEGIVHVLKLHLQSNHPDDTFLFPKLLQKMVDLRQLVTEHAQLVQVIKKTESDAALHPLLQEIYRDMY
Nature of the assay: Transient cotransfection assay, GAL4-PPARα chimera in CV-1 cells (mouse PPARα). The conditions noted are these: transfection assay. Format: cell-based.
From the text: as §1, §2, §3, §4, §5

A short description of assay [1]: Change of body weight in hamsters on 1% cholesterol chow, 14 days oral dosing. The class given is in vivo, Golden Syrian hamsters. The following applies: for change of body weight (lost): Compound B Test, diet-only control gained 13 g; for change of body weight (gained): diet-only control gained 23.2 g. The procedure:
Male Golden Syrian hamsters (supplied by Charles River), weighing approximately 140-150 g at the start of the study, were subjected to the following dietary regime. On day 0, four groups of animals (n=6/group) were begun on a diet consisting of rodent chow containing 1% cholesterol. Three of the four groups on the cholesterol diet also began oral dosing with Compound A as described in Example 3 ([…]). Compound A was given as a suspension in 5% bicarbonate and 0.5% methyicellulose. The study was carried out for 14 days.
The above dietary regime was also carried out with Compound B, but the dosages of Compound B employed were 0.1, 0.5 and 1mglkg/day.
The changes of body weight observed were as follows: […]

A further assay relates to GST-PPARα. Nature of the assay: Competition binding for PPARα against the radioligand of Example 2. The conditions noted are these: 100 nM radioligand of Example 2, 1000-fold excess (100 microM) of competitor; no competitor 40,200 cpm bound. As for the experimental part: a) Binding of the radioligand of Example 2 to PPARα The ligand binding domains of mouse and human PPARα were expressed in E. Coli as fusion proteins with glutathione-S-transferase (GST). DNA encoding the ligand binding domain of mouse and human PPARa was amplified via polymerase chain reaction and inserted in-frame into the bacterial expression vector pGEX-2T (Pharmacia). GST-mPPARα and GST-hPPARa fusion proteins were expressed in BL21(DE3)plysS cells. After a 2 hour induction with 1 mM IPTG, the cells were lysed by freeze/thaw in 1/10 volumes of a buffer containing 50 mM Tris (pH 8), 250 mM KCl, 10 mM DTT, 1 mM PMSF, and 1% Triton X-100. Lysates were clarified by centrifugation for 1 hr at 50,000 x g. 1.5 ml of a 50% glutathione-sepharose bead (Pharmacia)/phosphate buffered saline slurry was added to 10 ml of clarified lysate, the mixture incubated for 30 minutes, and the glutathione-sepharose bead-GST-PPARα complexes were then collected by centrifugation and washed twice in binding buffer containing 50 mM KCl, 10 mM Tris (pH 8), 1 mM DTT. The washed glutathione-sepharose bead-PPARα complexes were resuspended in 0.75 ml binding buffer containing 10% glycerol. […]

For `CCCCCCCN(CCc1ccc(OC(C)(C)C(=O)O)cc1)C(=O)Nc1ccc(F)cc1F` [Compound B, 2-(4-[2-(3-[2,4-difluorophenyl]-1-heptylureido)ethyl]-phenoxy)-2-methylpropionic acid], the EC50 at hPPARα was 720 nM; on mPPARα, 25 nM. Moreover, the “change of body weight (lost)” value was 12.3 g in assay [1] (0.5 mg/kg/day oral) and 12.4 g in assay [1] (1 mg/kg/day oral). Also, the cpm bound with GST-PPARα is on record as 13,000 cpm.

As for `CCCCCCCN(CCc1ccc(OC(C)(C)C(=O)O)cc1)C(=O)Nc1ccc(F)cc1` [Compound A, 2-(4[2-(3-[4-fluorophenyl]-1-heptylureido)ethyl]-phenoxy)-2-methylpropionicacid], the values for the half-maximal effective concentration (EC50) on hPPARα and on mPPARα were 545 nM and 13 nM, respectively. For the same compound, the “change of body weight (gained)” value in assay [1] (0.05 mg/kg/day oral) amounted to 20 g; in assay [1] (0.1 mg/kg/day oral, Compound A Test) it was 26.2 g; in assay [1] (0.25 mg/kg/day oral), 12.6 g; in assay [1] (0.5 mg/kg/day oral, Compound A Test), 3.4 g. Moreover, the cpm bound in the assay with GST-PPARα was 18,300 cpm.

In general, EC50 refers to the concentration needed to bring the measured effect to its halfway point. Low readings indicate greater potency, high ones weaker potency.
